How the values were obtained:
Format in all cases: binding
EgFABP1 [1] = target: T1, EgFABP1 (Echinococcus granulosus, UniProt Q02970); experiment: fluorescence titration of the anthroyloxy fatty acid with protein
T1 construct: gene FABP1; recombinant EgFABP1 from pET11b in E. coli, delipidated

EgFABP1 [2] = target: T2, EgFABP1 (Echinococcus granulosus, UniProt Q02970); experiment: protection from limited proteolysis (clostripain); GC of co-purified fatty acids
T2 construct: gene FABP1; recombinant EgFABP1 from pET11b in E. coli
T2 sequence (Q02970 1-133): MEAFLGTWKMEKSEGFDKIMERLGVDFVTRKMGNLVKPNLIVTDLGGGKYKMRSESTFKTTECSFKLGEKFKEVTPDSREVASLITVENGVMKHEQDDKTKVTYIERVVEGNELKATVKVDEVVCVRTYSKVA

EgFABP1 [3] = target: T2, EgFABP1; experiment: near-UV CD change; protection from limited proteolysis (clostripain); GC of co-purified fatty acids

SMILES	Kd (EgFABP1 [1])	also measured
CCCCCCC(CCCCCCCCCCC(=O)O)OC(=O)c1c2ccccc2cc2ccccc12 (stereo not shown) [12AS, 12-(9-anthroyloxy)stearic acid]	120 ± 20 nM	
O=C(O)CCCCCCCCCCCCCCCOC(=O)c1c2ccccc2cc2ccccc12 [16AP, 16-(9-anthroyloxy)palmitic acid]	13 ± 6 nM	
CCCCCCCCCCCCCC(=O)O [myristic acid]		protection from limited proteolysis (clostripain); GC of co-purified fatty acids (EgFABP1 [2]): Results show that binding of FAs gives EgFABP1 significant relative protection against cleavage
CCCCCCCC/C=C\CCCCCCCC(=O)O [oleic acid]		near-UV CD change; protection from limited proteolysis (clostripain); GC of co-p (EgFABP1 [3]): the near-UV CD spectra (Figure S1) showed differences upon ligand binding, especially with oleic acid

Reference: paper PMC3499409, “Direct Interaction between EgFABP1, a Fatty Acid Binding Protein from Echinococcus granulosus, and Phospholipid Membranes” (PLoS Neglected Tropical Diseases, 2012)
